# Measured values from US20070093520A1, “Method of treatment of diarrhea-predominant irritable bowel syndrome in a subject” (priority 2005, published 2007).
# Tested on: diarrhea-predominant IBS subjects
# Experiment: 3007 Study: open-label 52-week safety study, adverse events and withdrawals
# Conditions: Study 3007; for Number of subjects who died / Primary reason for withdrawal: Adverse event and lack of efficacy / Primary reason for withdrawal: Baseline complaint/adverse event / Primary reason for withdrawal: Lack of efficacy: all enrolled
smiles,measurement,setting,value
"Cc1nccn1C[C@H]1CCc2c(c3cccc4c3n2CCC4)C1=O [cilansetron, (R)-(−)-4,5,6,8,9,10-hexahydro-10-[(2-methyl-1H-imidazol-1-yl)methyl]-11H-pyrido-[3,2,1-jk]-carbazol-11-one]",SAE: Hepatitis NOS,C/C,1 (<1%) n (%)
same,SAE: Hepatobiliary Disorders,C/C,2 (<1%) n (%)
same,SAE: Immune System Disorders,C/C,0 n (%)
same,SAE: Infections and Infestations,C/C,1 (<1%) n (%)
same,"SAE: Injury, Poisoning and Procedural Complications",C/C,2 (<1%) n (%)
same,SAE: Irritable Bowel Syndrome Aggravated,C/C,1 (<1%) n (%)
same,SAE: Leiomyoma NOS,C/C,1 (<1%) n (%)
same,SAE: Loss of Consciousness,C/C,1 (<1%) n (%)
same,SAE: Myocardial Infarction,C/C,1 (<1%) n (%)
same,"SAE: Neoplasms Benign, Malignant and Unspecified (Incl Cysts and Polyps)",C/C,3 (1%) n (%)
same,SAE: Nervous System Disorders,C/C,2 (<1%) n (%)
same,SAE: Non-Accidental Overdose,C/C,1 (<1%) n (%)
same,SAE: Ovarian Cancer NOS*,C/C,1 (<1%) n (%)
same,SAE: Ovarian Cystadenofibroma*,C/C,0 n (%)
same,SAE: Pregnancy NOS*,C/C,1 (<1%) n (%)
same,"SAE: Pregnancy, Puerperium and Perinatal Conditions",C/C,1 (<1%) n (%)
same,SAE: Psychiatric Disorders,C/C,0 n (%)
same,SAE: Psychotic Disorder NOS,C/C,0 n (%)
same,SAE: Renal and Urinary Disorders,C/C,1 (<1%) n (%)
same,SAE: Reproductive System and Breast Disorders,C/C,2 (<1%) n (%)
same,"SAE: Respiratory, Thoracic and Mediastinal Disorders",C/C,0 n (%)
same,SAE: Sinusitis Acute NOS,C/C,0 n (%)
same,SAE: Status Epilepticus,C/C,1 (<1%) n (%)
same,SAE: Suicidal Ideation,C/C,0 n (%)
same,SAE: Supraventricular Tachycardia,C/C,0 n (%)
same,SAE: Urinary Tract Infection NOS,C/C,0 n (%)
same,SAE: Uterine Polyp NOS*,C/C,1 (<1%) n (%)
same,SAE: Vaginal Cyst*,C/C,1 (<1%) n (%)
same,TEAEs that led to permanent discontinuation of study medication,C/C,13%
same,Total Number of Subjects with at Least One Serious Adverse Event,C/C,19 (7%) n (%)
same,subjects with at least one TEAE,C/C,86%
same,subjects with at least one treatment-emergent SAE,C/C,7%
same,withdrawal for AE,C/C,13%
same,withdrawal for lack of efficacy,C/C,17%
same,Number of deaths,C/C (N = 257),0 n (%)
same,Number of subjects who permanently discontinued study medication due to a TEAE (as reported on the AE CRF),C/C (N = 257),33 (13) n (%)
same,Number of subjects with at least one AE of special interest,C/C (N = 257),186 (72) n (%)
same,Number of subjects with at least one SAE,C/C (N = 257),19 (7) n (%)
same,Number of subjects with at least one TEAE,C/C (N = 257),220 (86) n (%)
same,Number of subjects with at least one TEAE leading to dose reduction,C/C (N = 257),7 (3) n (%)
same,Number of subjects with at least one related TEAE,C/C (N = 257),151 (59) n (%)
same,Number of subjects with at least one severe TEAE,C/C (N = 257),50 (19) n (%)
same,Number of subjects who died,C/C,0 n (%)
same,Primary reason for withdrawal: Adverse event and lack of efficacy,C/C,23 (9) n (%)
same,Primary reason for withdrawal: Baseline complaint/adverse event,C/C,10 (4) n (%)
same,Primary reason for withdrawal: Lack of efficacy,C/C,20 (8) n (%)
same,Number of deaths,Overall (N = 536),0 n (%)
same,Number of subjects who permanently discontinued study medication due to a TEAE (as reported on the AE CRF),Overall (N = 536),83 (15) n (%)
same,Number of subjects with at least one AE of special interest,Overall (N = 536),371 (69) n (%)
same,Number of subjects with at least one SAE,Overall (N = 536),29 (5) n (%)
same,Number of subjects with at least one TEAE,Overall (N = 536),437 (82) n (%)
same,Number of subjects with at least one TEAE leading to dose reduction,Overall (N = 536),11 (2) n (%)
same,Number of subjects with at least one related TEAE,Overall (N = 536),301 (56) n (%)
same,Number of subjects with at least one severe TEAE,Overall (N = 536),94 (18) n (%)
same,Number of subjects who died,Overall,0 n (%)
same,Primary reason for withdrawal: Adverse event and lack of efficacy,Overall,57 (10) n (%)
same,Primary reason for withdrawal: Baseline complaint/adverse event,Overall,24 (4) n (%)
same,Primary reason for withdrawal: Lack of efficacy,Overall,45 (8) n (%)
same,SAE: Abdominal Pain Upper,P/C,0 n (%)
same,SAE: Adenomyosis*,P/C,0 n (%)
same,SAE: Angina Pectoris,P/C,0 n (%)
same,SAE: Appendicitis,P/C,0 n (%)
same,SAE: Asthma NOS,P/C,1 (<1%) n (%)
same,SAE: Benign Ovarian Tumour*,P/C,1 (<1%) n (%)
same,SAE: Bladder Prolapse,P/C,1 (<1%) n (%)
same,SAE: Bone Neoplasm Malignant,P/C,0 n (%)
same,SAE: Breast Cancer NOS*,P/C,2 (1%) n (%)
same,SAE: Bronchopneumonia NOS,P/C,1 (<1%) n (%)
same,SAE: Calculus Ureteric,P/C,0 n (%)
same,SAE: Cardiac Disorders,P/C,1 (<1%) n (%)
same,SAE: Chest Pain,P/C,1 (<1%) n (%)
same,SAE: Cholelithiasis,P/C,0 n (%)
same,SAE: Colitis Ischaemic,P/C,1 (<1%) n (%)
same,SAE: Depression,P/C,1 (<1%) n (%)
same,SAE: Endometriosis*,P/C,0 n (%)
same,SAE: Fibroma NOS,P/C,1 (<1%) n (%)
same,SAE: Food Allergy,P/C,1 (<1%) n (%)
same,SAE: Gastritis NOS,P/C,0 n (%)
same,SAE: Gastroenteritis NOS,P/C,0 n (%)
same,SAE: Gastrointestinal Disorders,P/C,1 (<1%) n (%)
same,SAE: General Disorders and Administration Site Conditions,P/C,1 (<1%) n (%)
same,SAE: Hallucination NOS,P/C,1 (<1%) n (%)
same,"SAE: Hallucination, Auditory",P/C,1 (<1%) n (%)
same,SAE: Heat Exhaustion,P/C,0 n (%)
same,SAE: Hepatitis NOS,P/C,0 n (%)
